The values below are quoted from earlier work in patent publication US20230091009A1, “METHOD FOR PROMOTING GROWTH OF GAS-FERMENTED MICROORGANISMS” (HARBIN INSTITUTE OF TECHNOLOGY, SHENZHEN, priority 2021, published 2023).

For this series the following is noted: ambient conditions, even in a supersaturated state.

In the case of `[HH]` [hydrogen], the solubility in water entry is recorded as “about 0.79 mmol/l”.
